Experimental data as given in patent US9271952B2, “Compositions and methods for treating nephropathy” (Complexa, Inc., priority 2011, dated 2016).

Key:
[1] = tested on: human proximal tubular cells (HK2); experiment: Cisplatin-induced caspase activity in cultured human proximal tubular cells (HK2); assay type: cell-based
[2] = tested on: B6129S2/J mice; experiment: Cisplatin-induced renal injury in mice, posttreatment with OA-NO2; assay type: in vivo
Excerpt: The control group also received an i.p. injection of the equivalent amount of ethanol at the same frequencies. At the end of the experiments, under isoflurane anesthesia, blood was withdrawn from the vena cava using 1 cc insulin syringe and kidneys were harvested for analysis of morphology and gene expression.

[3] = cisplatin-treated mice, OA-NO2 400 mg/kg i.p. at 6-hour intervals for 48 hours
[4] = cisplatin 20 mg/kg i.p. alone, mice

9- or 10-nitro octadecenoic acid [OA-NO2]
cisplatin-induced caspase activity ([1]; HK2 cells exposed to 1.0 μM cisplatin, with OA-NO2): almost completely normalized | MPO plasma level (marker of neutrophil infiltration) [2, 3]: attenuated or completely corrected | activity of caspase (index of apoptosis) [2, 3]: attenuated or completely corrected | kidney expression of NADPH oxidase subunits p47phox and gp91phox [2, 3]: attenuated or completely corrected | kidney thiobarbituric acid-reactive substances (TBARS, index of oxidative stress) [2, 3]: attenuated or completely corrected | renal histological abnormalities (distortion of renal morphology, dilation of renal tubules, protein cast; pathological changes) ([2]; mice given cisplatin 20 mg/kg i.p., OA-NO2 400 mg/kg i.p. at 6-hour intervals for 48 hours): markedly attenuated | renal dysfunction as indicated by a rise in plasma BUN (functional changes) ([2]; mice given cisplatin 20 mg/kg i.p., OA-NO2 400 mg/kg i.p. from 20 minutes after, at 6-hour intervals for 48 hours): markedly attenuated

N.N.[Cl][Pt][Cl] [cisplatin, reference compound]
increase in caspase activity ([1]; HK2 cells, exposure to 1.0 μM cisplatin): 3 fold | activity of caspase [2, 4]: increased | kidney TBARS [2, 4]: increased | kidney expression of NADPH oxidase subunits p47phox and gp91phox [2, 4]: increased
